For this assay, the target named is Parkin (Homo sapiens (Human), UniProt O60260). Put plainly: In vitro E2 discharge assay. Type of assay: biochemical. The note with it: Ub-loaded UbcH7, presence of PINK1, vs DMSO. As to the method:
FIGS. 15A-15H show Parkin activation in primary fibroblasts, neuronal cells and in vitro. Positive control (PC) cells were treated with DMSO and 10 μM of CCCP. Negative control (NC) cells were treated with 3.5 μM CCCP, some cells were left untreated (−). […] Vinculin was used as loading control. […] FIG. 15C: Human fibroblasts were directly converted to neurons and treated as in FIG. 15B. […] Beta III tubulin confirmed successful conversion of fibroblasts to iNeurons. FIG. 15D: Rat PC12 cells were treated as in FIG. 15A. Western blots show enhanced ubiquitylation of MFN2 and TOM70, and robust pSer65-Ub induction similar to PC, but not NC cells. FIG. 15E: In vitro E2 discharge assay. Recombinant Parkin was pre-incubated with compound 4 or DMSO as control and was mixed to Ub-loaded UbcH7. […] Control reactions were performed without PINK1 or Parkin. FIG. 15F: In vitro assay with isolated mitochondria from untreated or CCCP-treated HeLa cells lacking Parkin. Mitochondrial preparations were mixed with recombinant Parkin, E1, UbcH7, ATP and either compound 4 or DMSO as a control and incubated for the indicated times. […] Control samples were incubated in reaction mix without Parkin. […]
As the first readout for Parkin activity, E2 Ub discharge assays were performed, complementary to the Ub-charging assays of Parkin C431S in cells. […]

Chain of Parkin (O60260 whole entry): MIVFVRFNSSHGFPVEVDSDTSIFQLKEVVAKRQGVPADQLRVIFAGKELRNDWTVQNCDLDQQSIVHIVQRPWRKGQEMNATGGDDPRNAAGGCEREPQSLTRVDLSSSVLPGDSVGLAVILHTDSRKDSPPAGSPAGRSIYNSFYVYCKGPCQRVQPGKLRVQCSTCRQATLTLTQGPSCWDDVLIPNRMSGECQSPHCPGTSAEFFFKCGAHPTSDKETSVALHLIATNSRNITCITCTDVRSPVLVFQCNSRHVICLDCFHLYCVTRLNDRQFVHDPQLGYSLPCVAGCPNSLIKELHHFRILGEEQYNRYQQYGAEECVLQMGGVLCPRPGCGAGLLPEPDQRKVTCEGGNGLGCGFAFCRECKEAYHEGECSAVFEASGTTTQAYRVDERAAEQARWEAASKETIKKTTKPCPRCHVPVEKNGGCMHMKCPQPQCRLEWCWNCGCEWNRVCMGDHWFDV

Consider `O=C(Cn1ccnc1-c1ccccn1)Nc1ccc(-c2ccccc2)cc1` [Compound 4], for which the E2 discharge result is “slightly more E2 discharge”.

(Values after US11401255B2, “Small molecule activators of Parkin enzyme function” (Mayo Foundation for Medical Education and Research, priority 2016, dated 2022).)
